From ChEMBL document CHEMBL3297662, “Synthesis and identification of cytotoxic diphyllin glycosides as vacuolar H(+)-ATPase inhibitors” (Eur J Med Chem, 2014)
Active and inactive are the calls of the source. No cut-off for these calls is given here.

What was measured:
[1] = tested on: HCT-116; test: Cytotoxicity against human HCT116 cells assessed as growth inhibition after 72 hrs by MTT assay; assay type: functional, cell-based; conditions: HCT-116, 72 h
[2] = tested on: MCF7; test: Cytotoxicity against human MCF7 cells assessed as growth inhibition after 72 hrs by MTT assay; assay type: functional, cell-based; conditions: MCF7, 72 h
[3] = tested on: U-251; test: Cytotoxicity against human U251 cells assessed as growth inhibition after 72 hrs by MTT assay; assay type: functional, cell-based; conditions: U-251, 72 h
[4] = tested on: HepG2; test: Cytotoxicity against human HepG2 cells assessed as growth inhibition after 72 hrs by MTT assay; assay type: functional, cell-based; conditions: HepG2, 72 h
[5] = tested on: HeLa; test: Cytotoxicity against human HeLa cells assessed as growth inhibition after 72 hrs by MTT assay; assay type: functional, cell-based
[6] = tested on: HepG2; test: Inhibition of vacuolar H+-ATPase in human HepG2 cells assessed as neutralization of lysosomal pH at 10 to 100 nM after 48 hrs by LysoTracker Red dye-based confocal microscopic analysis; assay type: cell-based
[7] = tested on: HepG2; test: Inhibition of vacuolar H+-ATPase in human HepG2 cells assessed as release of phosphate after 72 hrs by malachite green dye-based spectrophotometric analysis; assay type: cell-based

Structure (SMILES)	IC50 [1] [nM]	IC50 [2] [nM]	IC50 [3] [nM]	IC50 [4] [nM]	IC50 [5] [nM]	inhibition [6]	inhibition [7]
COc1cc2c(O[C@@H]3OC[C@@H](OC)[C@H](OC)[C@H]3O[C@@H]3O[C@H](CO)[C@@H](O)[C@H](O)[C@H]3O)c3c(c(-c4ccc5c(c4)OCO5)c2cc1OC)C(=O)OC3	> 200	> 200	> 200	> 200	> 200	–	–
CC(=O)O[C@H]1C(=O)[C@@]2(C)[C@H]([C@H](OC(=O)c3ccccc3)[C@]3(O)C[C@H](OC(=O)[C@H](O)[C@@H](NC(=O)c4ccccc4)c4ccccc4)C(C)=C1C3(C)C)[C@]1(OC(C)=O)CO[C@@H]1C[C@@H]2O [PACLITAXEL]	69	45	128	84	96	–	–
COc1cc2c(O[C@@H]3OC[C@@H](OC)[C@H](OC)[C@H]3O[C@@H]3O[C@H](COC(C)=O)[C@@H](OC(C)=O)[C@H](OC(C)=O)[C@H]3OC(C)=O)c3c(c(-c4ccc5c(c4)OCO5)c2cc1OC)C(=O)OC3	82	92	101	39	74	Active	Dose-dependent effect
COc1cc2c(O[C@@H]3OC[C@@H](OC)[C@H](OC)[C@H]3O)c3c(c(-c4ccc5c(c4)OCO5)c2cc1OC)C(=O)OC3 [CLEISTANTHIN]	31	190	97	36	67	Active	Dose-dependent effect
